# Several values for one entry are separate records, joined by “and”; a condition that tells them apart may be missing. Identical values can stand only once.
# Tests used:
# [1] = test system: K. pneumoniae M6; assay: inhibition of bacterial growth, OD600 after 20 h; type: cell-based, Klebsiella pneumoniae; settings: SSA 5.0 mM, 2.5% ethanol, negative = enhanced growth, listed as 4
# Experimental: (§1) With the self-associative properties of 1–10 established, the antimicrobial activity of these SSAs were determined against a panel of clinically relevant, high-priority pathogens including: P. aeruginosa PAO1; Klebsiella pneumonia (K. pneumoniae) M6; E. coli NCTC 12923; Acinetobacter baumannii (A. baumannii) ATCC 17978; S. aureus ATCC 9144; Enterococcus faecalis (E. faecalis) NCTC 775; and Enterococcus faecium (E. faecium) NCTC 12204. […] However, it should be noted that the SSA stock solution was prepared in a H2O 5% EtOH solution, to ensure that the SSA aggregates formed were in line with those characterised within the scope of the SSA self-association studies.
# (§2) Section 3: Biological methods
# (§3) These methods were taken directly from UK Health and Security Office (UKHSA) standard […]
# (§4) Preparation of Luria Broth media (LB): Yeast extract (5.0 g), tryptone (10.0 g) and sodium chloride (10.0 g) were dissolved in dH₂O (1.0 L) then divided into bottles and autoclaved.
# (§5) Preparation of Luria Broth (LB) agar plates: Agar (6.0 g) was added to LB (400 mL) and autoclaved. Once cool, the LB agar was poured into sterile petri dishes under sterile conditions and allowed to set. LB plates were stored at 4 °C until use.
# (§6) Preparation of bacterial plates: Sterile LB agar plates were streaked using streaked using the desired bacteria i) Pseudomonas aeruginosa (P.aeruginosa) PAO1, ii) Klebsiella pneumoniae (K. pneumoniae) M6 iii) E. coli NCTC 12923 and iv) Acinetobacter baumannii (A. baumannii) ATCC 17978 and Gram-positive i) Staphylococcus aureus (S. aureus) ATCC 9144 ii) Enterococcus faecalis (E. faecalis) NCTC 775 and iii) Enterococcus faecium (E. faecium ) NCTC 12204, then incubated at 37 °C overnight.
# (§7) Preparation of Inoculum: An initial culture was made up by inoculating LB media (5 mL) with a single colony of bacteria under sterile conditions and incubated at 37 °C with shaking overnight. The following day, overnight bacterial cultures were subcultured into fresh LB medium to a starting OD600 of 0.01.
# (§8) Preparation of 96 well microplate for MIC50: The 1:100 cell suspension (150 µL) was dispensed into individual wells under sterile conditions. SSAs (30 µL) were added to the wells to equal a total volume of 180 µL in the wells. Six repeats of each concentration for each SSA were created each plate. The plates were sealed using parafilm, then incubated at 37 °C in a microplate reader for 20 hours. OD600 endpoint data was used to generate growth curves. […]
# [2] = tensiometry: critical aggregate concentration (CAC) and surface tension; type: physicochemical; settings: listed as 4
# Experimental: As the (Q) ^1H NMR spectroscopy experiments conducted at 5.6 mM in a D2O 5.0% EtOH solution confirmed the presence of higher-order self-associated structures with solid-like properties, concentration dependent surface tension measurements, obtained through tensiometry, were used to calculate critical aggregate concentration (CAC). Here the CAC is defined as the point at which an increase in SSA concentration no longer decreases surface tension but instead results in the formation of higher-order self-associated structures.
# [3] = test system: A. baumannii ATCC 17978; assay: inhibition of bacterial growth, OD600 after 20 h; type: cell-based, Acinetobacter baumannii; settings: SSA 5.0 mM, 2.5% ethanol, negative = enhanced growth, listed as 4
# Experimental: as §1, §2, §3, §4, §5, §6, §7, §8
# [4] = test system: P. aeruginosa PAO1; assay: inhibition of bacterial growth, OD600 after 20 h; type: cell-based, Pseudomonas aeruginosa; settings: SSA 5.0 mM, 2.5% ethanol, negative = enhanced growth, listed as 4
# Experimental: as §1, §2, §3, §4, §5, §6, §7, §8
# [5] = test system: E. faecium NCTC 12204; assay: inhibition of bacterial growth, OD600 after 20 h; type: cell-based, Enterococcus faecium; settings: SSA 5.0 mM, 2.5% ethanol, negative = enhanced growth, listed as 4
# Experimental: as §1, §2, §3, §4, §5, §6, §7, §8
# [6] = quantitative (Q) 1H NMR spectroscopy, proportion of SSA becoming NMR silent (higher-order aggregates); type: physicochemical
# Experimental: To confirm the presence of higher order self-associative structures quantitative (Q) ^1H NMR spectroscopy studies were undertaken at 5.6 mM in D2O 5% EtOH. Here the ^1H NMR resonances attributed to the EtOH are used as an internal standard.
# Table S1 – Overview of results of the quantitative (Q) 1H NMR studies for 1, 3, 5, 7 and 9
# 5.0 % EtOH . Values given in % represent the observed proportion of the SSA that has become
# Table S2 – Overview of results of the quantitative (Q) 1H NMR studies for 2, 4, 6, 8 and 10
# 5.0 % EtOH. Values given in % represent the observed proportion of anion and cation that has
# [7] = test system: E. coli NCTC 12923; assay: inhibition of bacterial growth, OD600 after 20 h; type: cell-based, Escherichia coli; settings: SSA 5.0 mM, 2.5% ethanol, negative = enhanced growth, listed as 4
# Experimental: as §1, §2, §3, §4, §5, §6, §7, §8
# [8] = test system: E. faecalis NCTC 775; assay: inhibition of bacterial growth, OD600 after 20 h; type: cell-based, Enterococcus faecalis; settings: SSA 5.0 mM, 2.5% ethanol, negative = enhanced growth, listed as 4
# Experimental: as §1, §2, §3, §4, §5, §6, §7, §8
# [9] = dynamic light scattering (DLS) of SSA aggregates; type: physicochemical; settings: 5.6 mM, H2O 5.0% EtOH, 298 K; listed as 4
# Experimental: Dynamic light scattering (DLS) and zeta potential measurements in H2O 5.0% EtOH were used to determine the hydrodynamic diameter (dH) and stability of the higher-order SSA aggregates detected by (Q) ^1H NMR spectroscopy at 5.6 mM, Table 1. […] However, we are unable to confidently report a dH for 1 due to the instability of this system, which is supported by a zeta potential value of −26 mV, obtained for this SSA under the same experimental conditions. […] Due to the instability of these systems in the absence of solvent, attempts to further characterise these systems through SEM or AFM are not possible.[48]
# [10] = test system: all Gram-positive bacteria tested; assay: inhibition of bacterial growth, span over the Gram-positive panel; type: cell-based, S. aureus, E. faecalis, E. faecium; settings: SSA 5.0 mM, 20 hours; read-out: inhibition against all Gram-positive bacteria tested (span)
# Experimental: as §1, §2, §3, §4
# Preparation of Luria Broth (LB) agar plates: Agar (6.0 g) was added to LB (400 mL) and autoclaved. […]
# Preparation of 96 well microplate for MIC50: The 1:100 cell suspension (150 µL) was dispensed into individual wells under sterile conditions. […] The plates were sealed using parafilm, then incubated at 37 °C in a microplate reader for 20 hours. […]
# [11] = test system: S. aureus ATCC 9144; assay: inhibition of bacterial growth, OD600 after 20 h; type: cell-based, Staphylococcus aureus; settings: SSA 5.0 mM, 2.5% ethanol, negative = enhanced growth, listed as 4
# Experimental: as §1, §2, §3, §4, §5, §6, §7, §8
# [12] = 5.6 mM, D2O 5.0% EtOH, 298 K, listed as 4
smiles,measurement,setting,value
O=C(O)CC[C@@H](NC(=O)Nc1ccc(C(F)(F)F)cc1)C(=O)O [SSA 4],"Percentage inhibition of bacterial growth, M6 (K. pneumoniae)",[1],19.93% and 20%
same,CAC,"[2]; H2O 5.0% EtOH, 298 K",22.26 mM and 22 mM
same,ST at CAC,"[2]; H2O 5.0% EtOH, 298 K",38 mN m^−1
same,Surface tension at CAC,[2]; H2O/5.0 % EtOH,38.35 mN/m
same,"Percentage inhibition of bacterial growth, ATCC 17978 (A. baumannii)",[3],-20.93% and −21%
same,"Percentage inhibition of bacterial growth, PAO1 (P. aeruginosa)",[4],10.30% and 10%
same,"Percentage inhibition of bacterial growth, NCTC 12204 (E. faecium)",[5],99.74% and 100%
same,"(Q) 1H NMR spectroscopy, proportion NMR silent, acid or anion",[6]; [12],41%
same,"(Q) 1H NMR spectroscopy, proportion NMR silent, cation",[6]; [12],43.2% and 43%
same,"(Q) 1H NMR, proportion NMR silent, SSA acid or anion","[6]; ~112 mM, DMSO-d6 1.0% DCM",0%
same,"(Q) 1H NMR, proportion NMR silent, cation","[6]; ~112 mM, DMSO-d6 1.0% DCM",0%
same,"Percentage inhibition of bacterial growth, NCTC 12923 (E. coli)",[7],39.02% and 39%
same,"Percentage inhibition of bacterial growth, NCTC 775 (E. faecalis)",[8],98.82% and 99%
same,DLS Peak 2 maxima,[9],5118 nm
same,Polydispersity index (%),[9],27.4 (± 0.8) %
same,dH (DLS intensity distribution peak 1 maxima),[9],255 nm
same,inhibition at 5000 µM,[10],99 to 100%
same,"Percentage inhibition of bacterial growth, ATCC 9144 (S. aureus)",[11],98.85% and 99%
